According to US20070207223A1, “Means for improving cardiovascular health” (priority 2006, published 2007):
Entries after “also recorded” stand apart in the source; their conditions may differ.

Experiments:
[1] = regular dietary intake; cited from earlier work
[2] = Heart tissue omega-3 fatty acid content, dietary study in beagle dogs; format: in vivo
Method: (§1) The test article, SDA, was administered in the diet once daily, 7 days per week, for up to 90 days to three groups (Groups 1-3) of male beagle dogs. The reference article, eicosapentaenoic acid (EPA), was administered to Group 4 on the same dosing regimen. Both SDA and EPA were supplied as ethyl esters. The control article, food grade high oleic sunflower oil (SFO), was administered to Group 5 on the same dosing regimen. SFO was also added to food of groups 1 through 4 so that all animals received a similar volume of oil per kg body wt. A dietary supplement, vitamin E, was added to all diets. Dosage levels were 21.4, 64.2 and 192.9 mg/kg/day SDA, 42.9 mg/kg/day EPA and were calculated for each animal based on body weight for Groups 1, 2, 3 and 4, respectively. Each group consisted of 15 males. Five animals/group were scheduled for each interim necropsy (study weeks 4 and 8) and the primary necropsy at the end of the 12-week treatment period. In addition, five animals were euthanized prior to randomization and test article administration to establish baseline levels of fatty acids (pretest necropsy).
(§2) The animals were observed twice daily for mortality and moribundity. Clinical examinations were performed daily, and detailed physical examinations were performed weekly. Individual body weights were recorded weekly. Food consumption was recorded daily and reported weekly. Blood samples for analysis of fatty acids were collected from five dogs scheduled for the pretest necropsy and from all surviving dogs during study weeks 2, 4, 8 and 12. All animals were euthanized, and in addition to liver and kidney sections, two samples of heart tissue were collected, one set was analyzed for fatty acid analysis and the other sample was retained for microscopic analysis at the scheduled necropsies. Sections from the heart, liver and kidney were examined microscopically from five animals during pretest and from 5 animals/group (Groups 3-5 only) at the study week 12 necropsy.
(§3) Tissue preparation, lipid extraction and analysis were conducted according to a conventional protocol. Briefly, heart tissues were first lyophilized overnight, and then pulverized by grinding between two ground glass slides. The ground tissue was suspended in saline and subjected to 10-15 seconds of sonication. Lipids were extracted with methanol and methylene chloride, and the solvent evaporated under nitrogen. Thawed RBCs were extracted with isopropanol and hexane. After centrifugation of the stroma, the solvent was transferred and evaporated under nitrogen. Phospholipids extracted from heart and RBC samples were methylated with BF3, at 100° C. for 10 minutes. These conditions transmethylate glycerophospholipid FAs but not sphingolipid FAs. After heating, all samples were extracted with hexane and water. The hexane layer was removed, dried under nitrogen, and the FA methyl esters reconstituted in hexane for analysis by flame ionization gas chromatography. FAs were identified by comparison with known standards, and FA compositions were reported as weight percent of total FA.
Animals were euthanized by an intravenous injection of sodium pentobarbital followed by exsanguinations. Two samples of approximately 200 mg of heart tissue from the left ventricle were collected, rinsed in chilled saline, wrapped in aluminum foil, flash frozen in liquid nitrogen, and stored at approximately −70° C. The samples were analyzed for pathologic abnormalities.

[3] = RBC omega-3 fatty acid content, dietary study in beagle dogs; format: in vivo
Method: as §1, §2
Blood samples were collected from the 5 dogs selected for the pretest necropsy and from all surviving dogs at study weeks 2, 4, 8 and 12. The samples were collected from the dog's jugular vein into tubes containing EDTA prior to the feeding/dosing regimen. The red blood cells (RBC) were separated from the plasma by centrifugation at 1500× for approximately 20 minutes at 4° C. The plasma was transferred to polypropylene tubes and stored at approximately −70° C. for future analysis. The buffy coat was removed from the packed RBCs, and the RBCs were divided approximately equally into two tubes.
as §3

[4] = dietary supplementation, human diet; phospholipid fractions; cited from earlier work
[5] = dog, in vivo
Method: as §1, with “Five animals/group were scheduled for each interim necropsy (study weeks 4 and 8) and the primary necropsy at the end of the 12-week treatment period. In addition, five animals were euthanized prior to randomization and test article administration to establish baseline levels of fatty acids (pretest necropsy).” left out
The animals were observed twice daily for mortality and moribundity. […] Individual body weights were recorded weekly. Food consumption was recorded daily and reported weekly. […] All animals were euthanized, and in addition to liver and kidney sections, two samples of heart tissue were collected, one set was analyzed for fatty acid analysis and the other sample was retained for microscopic analysis at the scheduled necropsies. […]
Animals were euthanized by an intravenous injection of sodium pentobarbital followed by exsanguinations. […] The samples were analyzed for pathologic abnormalities. […]

SMILES: CC/C=C\C/C=C\C/C=C\CCCCCCCC(=O)O [ALA, α-linolenic acid]
- Tissue concentrations of EPA and DHA [1]: proven ineffective in raising the tissue concentrations of EPA and DHA

SMILES: CC/C=C\C/C=C\C/C=C\C/C=C\C/C=C\CCCC(=O)O [EPA, eicosapentaenoic acid, reference compound]
- Heart tissue omega-3 fatty acid content relative to sunflower oil-treated dogs (negative control) ([2]; 42.9 mg/kg/day EPA in diet, between study weeks 4 and 12): 3-5 fold
- RBC omega-3 fatty acid content relative to SFO-treated dogs (negative control) ([3]; 42.9 mg/kg/day EPA in diet, between study weeks 2 and 12): 3-10 fold

SMILES: CC/C=C\C/C=C\C/C=C\C/C=C\CCCCC(=O)O [SDA, Stearidonic acid]
- Concentrations of EPA and DPA in erythrocytes and plasma [4]: increase the concentrations of EPA and DPA; also recorded: effectively converted into EPA and DPA
- Microscopic changes to heart, liver and kidney tissues [5]: did not cause any significant microscopic changes
- Microscopic findings (heart, liver, kidney) [5]: no microscopic findings attributed to test article administration
- Heart omega-3 fatty acid content over pretreatment levels ([2]; 21.4 mg/kg/day SDA, study week 4): negligible increase
- Heart omega-3 fatty acid content, peak over pretreatment levels ([2]; 21.4 mg/kg/day SDA, study week 8): approximately 1.5 fold
- Heart omega-3 fatty acid content over pretreatment levels ([2]; 192.9 mg/kg/day SDA, study week 12): approximately 3 fold
- Omega-3 fatty acid content in the heart tissue ([2]; SDA 21.4, 64.2 and 192.9 mg/kg/day in diet, study weeks 4, 8 and 12): increased in a dose-dependent manner
- Conversion into EPA and DPA and incorporation into cardiac and red blood cell membranes ([2]; SDA via the diet daily for 12 consecutive weeks, male beagle dogs): effectively converted into EPA and DPA
- Total omega-3 fatty acid content (RBC) over pretreatment levels ([3]; 21.4 mg/kg/day SDA, as early as study week 2): overall increase
- Time of peak of total omega-3 fatty acid content (RBC) ([3]; 21.4 mg/kg/day SDA, decreasing thereafter): approximately 4 weeks
- Total omega-3 fatty acid content (RBC) over pretreatment ([3]; 192.9 mg/kg/day SDA (Group 3), elevated from study week 2 through 12 weeks): approximately 2 fold
- Overall increase in omega-3 fatty acid content (RBC) over time compared with the EPA group ([3]; 192.9 mg/kg/day SDA vs 42.9 mg/kg/day EPA, slightly lower): comparable to the increase seen in the 42.9 mg/kg/day EPA group
- Omega-3 fatty acid content in red blood cells (RBC) ([3]; SDA 21.4, 64.2 and 192.9 mg/kg/day in diet, study weeks 2, 4, 8 and 12): increased in a dose-dependent manner
